Tests used:
[1] = tested on: Staphylococcus aureus 6538; assay: High resolution minimum inhibitory concentration (HRMIC) test vs S. aureus 6538; type: cell-based; details: M9GY medium, 96-well microtiter plate, 10^6 CFU/mL, 30° C. for 24 h; first well with no growth
Method: (§1) Several compounds of this invention were tested for biological activity in vitro against Escherichia coli 8739 and Staphylococcus aureus 6538 described below. The following test procedures were employed.
(§2) MIC Determination: The lowest concentration of test compound required to inhibit Escherichia coli 8739 and Staphylococcus aureus 6538 was determined by a high resolution minimum inhibitory concentration (HRMIC) test. Varying amounts of the test compounds were added to minimal salts glucose medium (Maniatis, T., Fritsch, E. F., Sambrook, J. 1982 Molecular Cloning, page 68) supplemented with 0.1% yeast extract (M9GY) in a 96-well microtiter plate. […] serial dilutions were performed on a Biomek 2000 Workstation to obtain a range of closely spaced concentrations of test compound as shown in FIG. 1. A cell suspension of inoculum, adjusted to provide 10^6 CFU/mL in each well, was added to the microtiter plate. Microtiter plates were incubated at 30° C. for 24 h and then were checked for the presence or absence of microbial growth in each well.

Escherichia coli 8739 = assay: High resolution minimum inhibitory concentration (HRMIC) test vs E. coli 8739; type: cell-based; details: M9GY medium, 96-well microtiter plate, 10^6 CFU/mL, 30° C. for 24 h; first well with no growth
Method: as §1, §2

Q: With `CCCCOC(=O)C(OC(=O)C(C)C)OC(=O)N1CCN(c2cc3c(cc2F)c(=O)c(C(=O)O)cn3CC)CC1` (centres unmarked) [Compound 8-1, 7-(4-[(Butoxycarbonyl)(2-methylpropanoyloxy)methoxycarbonyl]-1-piperazinyl)-1-ethyl-6-fluoro-1,4-dihydro-4-oxo-3-quinolinecarboxylic acid] as the compound, how does the “MIC vs S. aureus 6538 Gram-positive” value [1] read?
A: The value was 0.06 ppm AI.

Q: What about the melting point of the same compound?
A: Its melting point is 151.5 to 160 °C.

Q: And the “MIC vs E. coli 8739 Gram-negative” value (Escherichia coli 8739)?
A: Its value is 2.5 ppm AI.

Q: Which results are given for `CCn1cc(C(=O)O)c(=O)c2cc(F)c(N3CCN(C(=O)OC(OC(=O)c4ccccc4)C(=O)OC(C)C)CC3)cc21` (centres unmarked) [Compound 8-2, 7-(4-[(Isopropoxycarbonyl)(benzoyloxy)methoxycarbonyl]-1-piperazinyl)-1-ethyl-6-fluoro-1,4-dihydro-4-oxo-3-quinolinecarboxylic acid]?
A: MIC vs S. aureus 6538 Gram-positive [1]: 0.45 ppm AI; melting point: 135 to 143 °C; MIC vs E. coli 8739 Gram-negative (Escherichia coli 8739): 3 ppm AI

Q: With `CCCCCCCCCCCC(=O)OC(OC(=O)N1CCN(c2cc3c(cc2F)c(=O)c(C(=O)O)cn3CC)CC1)C(=O)OC(C)C` (centres unmarked) [Compound 8-3, 7-(4-[(Isopropoxycarbonyl)(dodecanoyloxy)methoxycarbonyl]-1-piperazinyl)-1-ethyl-6-fluoro-1,4-dihydro-4-oxo-3-quinolinecarboxylic acid] as the compound, how does the “MIC vs S. aureus 6538 Gram-positive” value [1] read?
A: Its value is 4.5 ppm AI.

Q: And the melting point?
A: The melting point was 105.5 to 109.2 °C.

Q: And the “MIC vs E. coli 8739 Gram-negative” value (Escherichia coli 8739)?
A: Its value is 40 ppm AI.

Q: What does the source list for `CCn1cc(C(=O)O)c(=O)c2cc(F)c(N3CCN(C(=O)OC(OC(=O)C(C)c4ccc(CC(C)C)cc4)C(=O)OC(C)C)CC3)cc21` (centres unmarked) [Compound 8-4, 7-(4-[(2-[4-(2-Methylpropyl)phenyl]propanoyloxy)(isopropoxycarbonyl)methoxy-carbonyl]-1-piperazinyl)-1-ethyl-6-fluoro-1,4-dihydro-4-oxo-3-quinolinecarboxylic acid]?
A: MIC vs S. aureus 6538 Gram-positive [1]: 0.7 ppm AI; melting point: 88 to 96.5 °C; MIC vs E. coli 8739 Gram-negative (Escherichia coli 8739): >1000 ppm AI

Q: For `CCn1cc(C(=O)O)c(=O)c2cc(F)c(N3CCNCC3)cc21` [Norfloxacin, reference compound], which “MIC vs S. aureus 6538 Gram-positive” value [1] is on record?
A: The value was 0.9 ppm AI.

Q: What about the “MIC vs E. coli 8739 Gram-negative” value (Escherichia coli 8739) of the same compound?
A: The value was 0.2 ppm AI.

Reference: patent US20040254182A1, “Enhanced propertied pharmaceuticals” (priority 2000, published 2004)
